Reference: patent US4416877A, “Anti-atherosclerotic pharmaceutical compositions containing diphosphonate compounds” (priority 1979, dated 1983)
Like-named read-outs stand apart in the source and are kept apart here.

Assays:
[1] = system: aorta cholesterol; assay: Aorta cholesterol clearing activity in cholesterol pre-fed rabbits; assay type: in vivo; conditions: 4 months; for Aortic Cholesterol Free/Ester Ratio / Aortic Cholesterol, Arch / Aortic Cholesterol, Thoracic / Aortic Cholesterol, Total / Aortic Phospholipids, Arch / Aortic Phospholipids, Thoracic / Aortic Phospholipids, Total: n = 5
[2] = Atheromateous surface involvement and intima thickening of aortas in cholesterol pre-fed rabbits; assay type: in vivo; conditions: 4 months
[3] = system: tissue cholesterol; assay: Effects in cholesterol fed rats (serum, liver and aorta lipids); assay type: in vivo; conditions: for change in vivo at 200 mg/kg/day: Rattus norvegicus
Protocol: Effects of diphosphonates of formula (I) in cholesterol fed rats
In order to increase tissue cholesterol, especially liver, rats were fed a high fat-high cholesterol diet for 10 days to 3 months, with the following diet composition: casein 20%, butter 37%, cellulose 9.1%, dextrose 18,9%, cholesterol 4.5%, sodium cholate 1.8%, minerals 7.3%, vitamins 1%, choline 0.4%.
The rats were then fed normal food and were treated for 10 days to 3 months with different compounds (200 mg/kg/day). Serum parameters described above were measured. Liver and aorta lipids were extracted according to J. Folch et al (J. Biochem. 226, 497, 1957). Total lipids were determined by the sulfophosphovanillic reaction (see N. Zolner and K. Kirsch, Z. Ges. exp. Med. 135, 545, 1962) and cholesterol by the Liebermann-Burchard reaction or appropriate enzymatic reaction.
In above Table IV, results are given as % control values. Except for serum calcium, values which differ from control values by less than 15% are considered as non significant (NS).
Serum free fatty acids, triglycerides and phospholipids were measured in normal rats (N) and rats previously fed a cholesterol diet for 10 days (C.F.)
Serum α/β cholesterol, total lipids and cholesterol of liver and aorta were determined in normal rats (N) and rats which had previously been fed on high cholesterol diet (C.F.)

[4] = system: lipoproteins; assay: Effect on lipoproteins from 5 treated human patients; assay type: in vivo; conditions: for HDL2 Cholesterol / HDL2 Free/Total Cholesterol ratio / HDL3 Cholesterol / HDL3 Free/Total Cholesterol ratio / LDL Cholesterol / LDL Free/Total Cholesterol ratio / VLDL Cholesterol / VLDL Free/Total Cholesterol ratio: n = 5; for HDL2 Free/Total Cholesterol ratio, % change / HDL3 Cholesterol, % change / HDL3 Free/Total Cholesterol ratio, % change / VLDL Free/Total Cholesterol ratio, % change: vs pre-test
Protocol: Five human patients were treated over several days with either 5 mg/kg or 10 mg/kg of compound 16 (Table XV). […] It is generally recognized that an increase in free cholesterol ratio is indicative of an increased clearing or turnover of the lipoprotein cholesterol (Schwartz, C. C. Biochem. Biophys. Acta 663:143-162, 1981).

[5] = Weight of fat tissue from rats treated for 90 days; assay type: in vivo, male and female rats
Protocol: Treating male and female rats with 40, 400 and 800 mg/kg of compound 16 per day for 90 days produced a sustained dose response augmentation in serum high density lipoprotein cholesterol (HDL-C or α-cholesterol) as high as 220% above controls at high dose level (Table VI).

[6] = system: lipoprotein cholesterol; assay: Lipoprotein cholesterol in cholesterol pre-fed rabbits; assay type: in vivo; conditions: 200 mg/kg per day, 4 months, n = 5
From the text: Animals were fed a cholesterol rich diet for 8 weeks before treatment was
started which continued for 4 months without cholesterol supplement.

[7] = system: renin; assay: Renin activity in normal monkeys treated for 60 days; assay type: in vivo, Cynomolgus monkeys
From the text: In order to further elucidate the mechanism of the previously observed hypotensive activity, the renin-angiotensin system was also monitored in these animals at the same time. […] However at this dosage concentration the inhibition appeared to be time dependent.

[8] = system: α/β cholesterol ratio; assay: Lipoprotein changes produced by one dose in a Cynomolgus monkey; assay type: in vivo; conditions: for α/β cholesterol ratio: 250 mg/kg p.o.
[9] = system: lipoprotein cholesterol; assay: Lipoprotein changes in normal Cynomolgus monkeys treated during 60 days; assay type: in vivo; conditions: for Total Cholesterol / alpha Cholesterol / alpha/beta Cholesterol Ratio / beta Cholesterol: n = 7
Protocol: To further test the long term efficacity of compound 16, normal male and female Cynomolgus monkeys were treated during 60 days (Table XIII).
Dose: 25 mg/kg/day for 45 days 50 mg/kg/day for last 15 days

[10] = cholesterol fed rats (C.F), 200 mg/kg/day
[11] = 60 days, 50 mg/kg/day for last 15 days

## COP(=O)(OC)OC(c1ccc(Cl)cc1)P(=O)(OC)OC (stereo not drawn) [Compound 16, Dimethyl α(dimethoxyphosphinyl) p-chlorobenzyl phosphate]
[1]; 100 mg/kg/day
  Aortic Cholesterol Free/Ester Ratio: 0.5 ± 0.1
  Aortic Cholesterol, Arch: 17.9 ± 2.9 mg/g
  Aortic Cholesterol, Thoracic: 10.6 ± 2.8 mg/g
  Aortic Cholesterol, Total: 20.8 ± 6.5 mg/Aorta
  Aortic Phospholipids, Arch: 4.6 ± 1.4 mg/g
  Aortic Phospholipids, Thoracic: 4.5 ± 1.5 mg/g
  Aortic Phospholipids, Total: 6.5 ± 1.6 mg/Aorta
[1]; 200 mg/kg/day
  Aortic Cholesterol Free/Ester Ratio: 0.4 ± 0.1
  Aortic Cholesterol, Arch: 22.8 ± 3.4 mg/g
  Aortic Cholesterol, Thoracic: 11.0 ± 4.2 mg/g
  Aortic Cholesterol, Total: 18.3 ± 6.7 mg/Aorta
  Aortic Phospholipids, Arch: 5.9 ± 1.3 mg/g
  Aortic Phospholipids, Thoracic: 4.9 ± 1.9 mg/g
  Aortic Phospholipids, Total: 7.9 ± 1.8 mg/Aorta
[1]; cholesterol pre-fed rabbits
  pre-established cholesterol deposits, aorta: effectively decreased the pre-established cholesterol deposits
[2]; 100 mg/kg/day, n = 4
  Arch Intima/Media Ratio: 0.79
  Arterial Wall Thickness, Arch Intima: 41.82 ± 0.93 Units in Area
  Arterial Wall Thickness, Thoracic Intima: 7.66 ± 0.12 Units in Area
  Surface Involved in Atheromateous Plaques, Arch: 88 ± 9%
  Surface Involved in Atheromateous Plaques, Thoracic: 50 ± 15%
  Surface Involved in Atheromateous Plaques, Total Aorta: 68 ± 12%
  Thoracic Intima/Media Ratio: 0.23
[2]; cholesterol pre-fed rabbits
  aorta intimal thickening: decreased aorta intimal thickening
  atherosclerosis surface involvement: decreased atherosclerosis surface involvement
[3]; cholesterol fed rats (C.F), 200 mg/kg/day, read-out: Liver Chol. (% control values)
  change in vivo at 200 mg/kg/day: -57%
[3]; cholesterol fed rats (C.F), 200 mg/kg/day, read-out: Liver Total Lipids (% control values)
  change in vivo at 200 mg/kg/day: -32%
[3]; cholesterol fed rats
  liver total lipids and/or liver cholesterol: decreased significantly
[3]; [10]
  Aorta Chol. (% control values): -30%
  Aorta Total Lipids (% control values): -37%
  Serum Chol. α/β (% control values): +169%
[4]; 5 mg/kg
  HDL2 Cholesterol: 0.82 ± 0.13 mmol/L
  HDL2 Free/Total Cholesterol ratio: 0.231 ± 0.027
  HDL3 Cholesterol: 0.72 ± 0.09 mmol/L
  HDL3 Free/Total Cholesterol ratio: 0.242 ± 0.018
  LDL Cholesterol: 3.05 ± 0.26 mmol/L
  LDL Free/Total Cholesterol ratio: 0.304 ± 0.005
  VLDL Cholesterol: 0.20 ± 0.03 mmol/L
  VLDL Free/Total Cholesterol ratio: 0.472 ± 0.019
  HDL2 Free/Total Cholesterol ratio, % change: +24%
  HDL3 Cholesterol, % change: +36%
  HDL3 Free/Total Cholesterol ratio, % change: +12%
  VLDL Free/Total Cholesterol ratio, % change: +14%
[4]; 10 mg/kg
  HDL2 Cholesterol: 0.87 ± 0.07 mmol/L
  HDL2 Free/Total Cholesterol ratio: 0.221 ± 0.003
  HDL3 Cholesterol: 0.60 ± 0.02 mmol/L
  HDL3 Free/Total Cholesterol ratio: 0.285 ± 0.044
  LDL Cholesterol: 2.86 ± 0.23 mmol/L
  LDL Free/Total Cholesterol ratio: 0.303 ± 0.002
  VLDL Cholesterol: 0.26 ± 0.03 mmol/L
  VLDL Free/Total Cholesterol ratio: 0.519 ± 0.031
  HDL2 Free/Total Cholesterol ratio, % change: +19%
  HDL3 Cholesterol, % change: +13%
  HDL3 Free/Total Cholesterol ratio, % change: +32%
  VLDL Free/Total Cholesterol ratio, % change: +25%
[4]; human patients, 5 or 10 mg/kg
  HDL3-cholesterol: significant increase
  free/total cholesterol ratio in isolated lipoprotein fractions: significantly elevated
[5]; 40, 400 and 800 mg/kg
  decreasing the weight of fat tissue: impressive dose response effect in decreasing the weight of fat tissue
[5]; females, 40 mg/kg, n = 10
  Weight of fat tissue: 1.33 ± 0.66 g
[5]; females, 400 mg/kg, n = 5
  Weight of fat tissue: 0.39 ± 0.24 g
[5]; females, 800 mg/kg, n = 5
  Weight of fat tissue: 0.48 ± 0.14 g
[5]; males, 40 mg/kg, n = 8
  Weight of fat tissue: 2.49 ± 0.94 g
[5]; males, 400 mg/kg, n = 5
  Weight of fat tissue: 1.95 ± 0.52 g
[5]; males, 800 mg/kg, n = 5
  Weight of fat tissue: 0.97 ± 0.30 g
[6]
  Total Cholesterol: 127.0 ± 68.0
  α-chol: 41.1 ± 11.1
  α/β-ratio: 0.94
  β-chol: 63.4 ± 43.0
[6]; listed as Cpd 16
  α/β-ratio: 0.94 ± 0.20
[7]; controls 5.9±0.9
  Renin Activity: 0.3±0.1 ng AI /ml/h
[7]; male and female monkeys
  inhibition of renin: highly significant and almost complete inhibition of renin
[8]; +1h
  α/β cholesterol ratio: 0.71
[8]; +2h
  α/β cholesterol ratio: 0.82
[8]; +3h
  α/β cholesterol ratio: 0.83
[8]; +5h
  α/β cholesterol ratio: 0.89
[8]; +6h
  α/β cholesterol ratio: 0.92
[8]; additional administration, 5 days
  α/β ratio: 0.88
[8]; single oral dose 250 mg/kg, 6 hours
  increase in α/β cholesterol levels: 39%
[9]; 45 days, 25 mg/kg/day
  Total Cholesterol: 99 ± 8 mg/100 ml
  alpha Cholesterol: 54 ± 5 mg/100 ml
  alpha/beta Cholesterol Ratio: 1.17
  beta Cholesterol: 46 ± 4 mg/100 ml
[9]; [11]
  Total Cholesterol: 85 ± 7 mg/100 ml
  alpha Cholesterol: 46 ± 4 mg/100 ml
  alpha/beta Cholesterol Ratio: 1.09
  beta Cholesterol: 41 ± 5 mg/100 ml
[9]; normal monkeys
  HDL (α-cholesterol) and α/β ratio: augmentation in HDL (α-cholesterol) and a significant increase in α/β ratio
[9]; normal monkeys, treated vs controls
  blood urea levels: significantly lower
